Test results taken from patent US20040191168A1, “Tumor cell killing by cell cycle checkpoint abrogation combined with Inhibition of the classical mitogen activated protein (map) kinase pathway” (priority 2000, published 2004).

Key:
Assay type in all cases: cell-based, human
[1] = test system: p42/44 MAPK; test: Phospho-MAPK immunoblot in U937 cells; conditions: UCN-01 150 nM, MEK inhibitor coincubated with UCN-01, 2 h to 18 h
Method: Immunoblot and Immunoprecipitation Analysis. Whole-cell pellets were lysed by sonication in 1× sample buffer [62.5 mM Tris base (pH6.8), 2% SDS, 50 mM DTT, 10% glycerol, 0.1% bromphenol blue, and […] each chymostatin, leupeptin, aprotinin, pepstatin, and soybean trypsin inhibitor] and boiled for 5 min. For analysis of phospho-proteins, 1 mM each Na vanadate and Na PPi was added to the sample buffer. Protein samples were collected from the supernatant after centrifugation of the samples at 12,800 3 g for 5 min, and protein was quantified using Coomassie Protein Assay Reagent (Pierce, Rock-ford, Ill.). Equal amounts of protein ([…]) were separated by SDS-PAGE and electrotransferred onto a nitrocellulose membrane. For blotting phospho-proteins, no SDS was included in the transfer buffer. The blots were blocked with 5% milk in PBS-Tween 20 (0.1%) at room temperature for 1 h and probed with the appropriate dilution of primary antibody overnight at 4° C. The blots were washed twice in PBS-Tween 20 for 15 min and then incubated with a 1:2000 dilution of horseradish peroxidase-conjugated secondary antibody (Kirkegaard & Perry, Gaithersburg, Md.) in 5% milk/PBS-Tween 20 at room temperature for 1 h. […] Protein samples were centrifuged at 12,800×g for 30 min and quantified. […]

[2] = test system: U937 cells; test: Soft agar clonogenic assay in U937 cells; conditions: agents alone, UCN-01 150 nM, PD184352 10 μM, 18 h
Method: Clonogenic Assay and Cell Proliferation Assays. Colony formation after drug treatment was evaluated using a soft agar cloning assay as described previously (Blasina et al, 1999). Briefly, cells were washed three times with serum-free RPMI medium. Subsequently, 500 cells/well were mixed with RPMI medium con-taining 20% FBS and 0.3% agar and plated on 12-well plates (three wells/ condition). The plates were then transferred to a 37° C./5% CO2, fully humid-ified incubator. After 10 days of incubation, colonies, consisting of groups 5 of 50 cells, were scored using an Olympus Model CK inverted microscope, and colony formation for each condition was calculated in relation to values obtained for untreated control cells. For cell viability assays, CellTiter 96 AQueous One Solution (Promega, Madison, Wis.) was used according to the manufacturer's instructions, and the absorbance at 490 nm was recorded using a 96-well plate reader (Molecular Devices, Sunnyvale, Calif.).

[3] = test system: U937 cells; test: Cell cycle analysis (propidium iodide flow cytometry) in U937 cells; conditions: 18 h, UCN-01 150 nM, PD184352 10 μM, FIG. 3A
Method: Cell Cycle Analysis and S-phase Content. Cells (2×10^6) were pelleted at 4° C., resuspended, fixed at 4° C. with 67% ethanol overnight, and treated on ice with a propidium iodide solution containing 3.8 mM Na citrate, 0.5 mg/ml RNase A (Sigma Chemical Co.), and 0.01 mg/ml propidium iodide (Sigma Chemical Co.) for 3 h. Cell cycle analysis was performed by flow cytometry using Verity Winlist software (Topsham, Me.). Incorporation of BrdUrd was monitored to evaluate S-phase content. For each condition, 2 3 10 6 cells (cell density 5 5 3 10 5 /ml) were incubated with […] BrdUrd for 30 min at 37° C. After washing twice with 1% BSA/PBS, the cells were resuspended in 70% ethanol and fixed for 30 min on ice. The BrdUrd-labeled cells were denatured and nuclei released by incubation with 2 N HCl/0.5% Triton X-100 for 30 min at room temperature. After centrifugation, the pellet was resuspended in 0.1 M […] (pH 8.5) to neutralize the acid. […] After washing once with 0.5% Tween 20/1% BSA/PBS, the cells were resuspended in PBS containing […] propiditun iodide and analyzed by flow cytometry. The percentage of S-phase cells was determined by measuring BrdUrd FITC-positive part in a dot plot of FL-3 (red fluorescence) against FL-1 (green fluorescence).

| SMILES | phosphorylation (activation) of MAPK [1] | reduction of clonogenic survival (colony formation) [2] | cell cycle distribution [3] |
| --- | --- | --- | --- |
| O=C(NOCC1CC1)c1ccc(F)c(F)c1Nc1ccc(I)cc1Cl [PD184352] | essentially complete | 40% | little effect on the cell cycle distribution |
| CN[C@@H]1C[C@H]2O[C@@](C)([C@@H]1OC)n1c3ccccc3c3c4c(c5c6ccccc6n2c5c31)C(=O)N[C@H]4O [UCN-01, 7-hydroxystaurosporine] | induced phosphorylation (activation) of MAPK | very modest effect | primarily depleted the G2 M population |
